Data on 1 molecule can be found in patent publication US11766430B2, “Methods of using a phenoxypropylamine compound to treat pain” (Minerva Neurosciences, Inc., priority 2018, dated 2023).

Where “and” joins values, the source holds several entries; their conditions need not be identical. Identical values can stand only once.

The subject of the test is peripheral mononeuropathy (Bennett model) in rats. The experiment in a line: Peripheral mononeuropathy (Bennett model, chronic constriction injury), paw pressure test (Example 3). It counts as in vivo, male Sprague-Dawley rats. As to conditions: for paw withdrawal threshold, control paw, Mean: n = 10; for Nociceptive threshold, injured paw (mean ± s.e.m.): 3 mg/kg. How it is done: The model of Chronic Constriction Injury (CCI) is based on a discrete peripheral nerve injury and can be related to post-traumatic/postsurgical neuropathic pain experienced by patients (Bennett, G. J. and Xie, Y. K., A peripheral mononeuropathy in rat that produces disorders of pain sensation like those seen in man, Pain, 1988(33):87-107). Unilateral peripheral mononeuropathy was induced by loose ligation of the rat the sciatic nerve of the right hindpaw in anaesthetized rats (xylazine 10 mg/kg i.p., ketamine 60 mg/kg i.p.). The common sciatic nerve was exposed at the level of the middle of the thigh by blunt dissection through the biceps femoris. Proximal to the sciatic trifurcation, four ligatures were tied loosely around it with about 1 mm spacing. Great care was taken to tie the ligatures, such that the diameter of the nerve was seen to be just barely constricted.
Fourteen days later, static mechanical hyperalgesia is assessed using the Paw pressure test (Randall, L. O. and Selitto, J. J., A method for measurement of analgesic activity on inflamed tissue, Arch Int Pharmacodyn, 1957(111):409-419). This test requires the application of an increasing pressure on the hind paws between a flat surface and a blunt pointer. This test is usually used with animals with one hindpaw inflamed by an injection or injured by ligation, and one normal hindpaw, to evaluate drugs for analgesic action. The apparatus exerts a steadily increasing force and reaction threshold is determined as the pressure (g) required to elicit paw withdrawal and/or vocalization. Ugo Basile Analgesimeter (Ugo Basile, Italy) was used for the paw pressure test.
Fourteen days after surgery (D0), nociceptive reaction thresholds (vocalization or paw withdrawal) was measured in order to select animals meeting the inclusion criteria: 20 g<paw withdrawal threshold<240 g (baseline).
Fifty (50) male Sprague-Dawley rats (SPF status, Janvier, France), weighing 133-181 grams the day of surgery were used. Rats were housed in a temperature (20-24° C.) and relative humidity (45%-65%) controlled room and acclimated to an artificial day/night cycle of 12 hours light (6:30 a.m. to 6:30 p.m.)/12 hours darkness. Rats had free access to sterilized tap water and were fed ad libitum with pelleted complete diet (reference A04, S.A.F.E.). Animals were housed 4 per cage (cages Type E) and were acclimated for a period of at least 5 days before any testing. Each rat was identified by tail markings. Based on the SPF status of the animal facilities, there is no reason to expect that contaminants were present in the food, water or bedding, at levels capable of interfering with the results of the tests. […]
Vehicle and MIN-117 were intraperitoneally administered at 10 mL/kg. […] Dosing and testing were performed in a random order by a blinded experimenter except for the morphine-treated group.
Thirty minutes after morphine injection, the antihyperalgesic effect of morphine was evaluated using the paw pressure test. For vehicle and MIN-117 administration, the antihyperalgesic effect of the was evaluated after 120 min. using the paw pressure test.
Results were expressed as: • The paw withdrawal threshold (mean±s.e.m.) in grams of contact pressure for each group, calculated from individual paw withdrawal thresholds • The percentage of variation of the paw withdrawal threshold calculated from the mean value of the vehicle-treated group • The percentage of activity of the compound on mechanical hyperalgesia induced by the sciatic nerve ligation, calculated as follows: […]

The mark [1] stands for this setting: CCI rats, Morphine 3 mg/kg IP [sic], 30 min.
[2] abbreviates: CCI rats, Morphine 3 mg/kg IP [sic], 30 min after treatment.
The mark [3] stands for this setting: CCI rats, Morphine 3 mg/kg group, Baseline (pre-treatment).
Where [4] appears, read: CCI, 3 mg/kg SC, T0 (before dosing).

On to `CN1CC[C@]23c4c5ccc(O)c4O[C@H]2[C@@H](O)C=C[C@H]3[C@H]1C5` [Morphine, reference compound], for which, under setting [1], the “% activity on mechanical hyperalgesia, injured paw” value came to 165%; the “% variation vs control paw, injured paw” value was −23%; the “% variation vs pre-drug threshold, injured paw” value is listed as 159%. In addition, under setting [2], the “paw withdrawal threshold, control paw, individual rats” value is 680 g (2×) and 640 g (3×) and 600 g (3×) and 560 g and 660 g; the “paw withdrawal threshold, injured paw, individual rats” value is 680 g and 600 g (2×) and 480 g (2×) and 560 g and 320 g and 500 g and 240 g and 400 g; the “paw withdrawal threshold, control paw, Mean” value is on record as 630 g. Also, under setting [3], the “% variation vs control paw, injured paw” value was −49%; the “% variation vs vehicle treated group, injured paw” value is on record as 6%; the “paw withdrawal threshold, control paw, Mean” value amounted to 372 g. Further, the “Nociceptive threshold, control paw (mean ± s.e.m.)” value (CCI, 3 mg/kg SC, T0 (14 days after surgery, before dosing)) was 372 ± 20.7 g. Also, under setting [4], the “% variation vs control paw, injured paw” value is given as −49%; the “% variation vs vehicle-treated group, injured paw” value is listed as 6%; the “Nociceptive threshold, injured paw (mean ± s.e.m.)” value was 188 ± 10.4 g. For the same molecule, for the setting “CCI, 3 mg/kg SC, T0 + 30 min”, the “% variation vs control paw, injured paw” value is −23%; the “% variation vs pre-drug threshold, injured paw” value came to 159%; the “Nociceptive threshold, injured paw (mean ± s.e.m.)” value was 486 ± 42.8 g. Further, the “Effect on nociceptive threshold vs baseline pre-treatment (in words)” value (CCI, 3 mg/kg s.c., 30 min. after the administration) was “pronounced and significant increase”.
